From US10494332B2, “Protein tyrosine phosphatases or SHP2 inhibitors and uses thereof” (Indiana University Research and Technology Corporation, priority 2015, dated 2019)

Assays:
Format in all cases: biochemical
SHP2 = biological target: T1, SHP2 (Homo sapiens, UniProt Q06124); test: SHP2 phosphatase inhibition assay (pNPP); details: pNPP at Km, pH 7.0, 25° C.; read-out: IC50 SHP2
T1 sequence (Q06124 224-528): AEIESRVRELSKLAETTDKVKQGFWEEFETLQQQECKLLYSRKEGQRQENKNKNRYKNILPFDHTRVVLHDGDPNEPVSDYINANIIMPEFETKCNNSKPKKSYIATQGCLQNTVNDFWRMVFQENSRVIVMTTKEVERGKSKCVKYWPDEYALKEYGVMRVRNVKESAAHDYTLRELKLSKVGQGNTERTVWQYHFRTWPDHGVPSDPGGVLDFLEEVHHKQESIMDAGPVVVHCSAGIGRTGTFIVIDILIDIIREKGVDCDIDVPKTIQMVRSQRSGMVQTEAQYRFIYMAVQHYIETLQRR

LYP = biological target: T2, LYP (Homo sapiens, UniProt Q9Y2R2); test: PTP inhibition assay (pNPP); details: pNPP at Km, pH 7.0, 25° C.
T2 sequence (Q9Y2R2 1-807): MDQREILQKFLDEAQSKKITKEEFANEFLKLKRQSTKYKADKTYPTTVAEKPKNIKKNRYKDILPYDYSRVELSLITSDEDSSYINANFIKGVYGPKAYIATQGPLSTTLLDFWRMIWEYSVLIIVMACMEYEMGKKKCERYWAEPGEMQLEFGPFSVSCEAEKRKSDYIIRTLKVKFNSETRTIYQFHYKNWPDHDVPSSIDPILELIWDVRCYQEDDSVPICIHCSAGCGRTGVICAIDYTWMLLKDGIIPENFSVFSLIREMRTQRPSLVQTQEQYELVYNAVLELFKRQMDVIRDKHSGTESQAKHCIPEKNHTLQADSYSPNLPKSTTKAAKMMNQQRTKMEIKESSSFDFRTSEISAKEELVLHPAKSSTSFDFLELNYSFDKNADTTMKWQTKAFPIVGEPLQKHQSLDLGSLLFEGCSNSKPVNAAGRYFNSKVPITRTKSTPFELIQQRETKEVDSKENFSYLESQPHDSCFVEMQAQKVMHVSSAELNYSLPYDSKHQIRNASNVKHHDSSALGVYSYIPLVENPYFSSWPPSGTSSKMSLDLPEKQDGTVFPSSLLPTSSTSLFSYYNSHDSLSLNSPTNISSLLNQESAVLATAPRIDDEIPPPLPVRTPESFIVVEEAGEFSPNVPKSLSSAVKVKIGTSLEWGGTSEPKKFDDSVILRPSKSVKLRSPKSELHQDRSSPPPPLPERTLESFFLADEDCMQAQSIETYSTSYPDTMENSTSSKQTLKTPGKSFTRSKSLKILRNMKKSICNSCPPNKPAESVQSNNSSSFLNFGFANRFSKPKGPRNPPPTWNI

LMWPTP = biological target: T3, LMWPTP (Homo sapiens, UniProt P24666); test: PTP inhibition assay (pNPP); details: pNPP at Km, pH 7.0, 25° C.
T3 sequence (P24666 1-158): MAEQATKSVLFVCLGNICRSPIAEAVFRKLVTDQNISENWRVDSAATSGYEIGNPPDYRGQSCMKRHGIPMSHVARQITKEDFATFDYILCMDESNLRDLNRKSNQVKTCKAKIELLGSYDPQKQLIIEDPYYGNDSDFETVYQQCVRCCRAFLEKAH

Laforin = biological target: T4, Laforin (Homo sapiens, UniProt O95278); test: PTP inhibition assay (pNPP); details: for IC50: pNPP at Km, pH 7.0, 25° C., read-out: IC50 Laforin
T4 sequence (O95278 1-331): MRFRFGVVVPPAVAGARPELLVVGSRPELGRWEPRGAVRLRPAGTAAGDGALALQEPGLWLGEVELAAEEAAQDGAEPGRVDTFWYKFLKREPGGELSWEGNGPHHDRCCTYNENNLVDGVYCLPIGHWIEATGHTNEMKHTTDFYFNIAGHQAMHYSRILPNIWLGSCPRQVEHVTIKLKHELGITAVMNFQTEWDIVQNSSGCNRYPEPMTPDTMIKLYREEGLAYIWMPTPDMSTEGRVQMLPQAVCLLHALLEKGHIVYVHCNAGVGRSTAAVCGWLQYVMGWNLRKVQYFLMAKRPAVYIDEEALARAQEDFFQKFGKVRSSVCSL

PTP1B = biological target: T5, PTP1B (Homo sapiens, UniProt P18031); test: PTP inhibition assay (pNPP); details: pNPP at Km, pH 7.0, 25° C.
T5 sequence (P18031 1-435): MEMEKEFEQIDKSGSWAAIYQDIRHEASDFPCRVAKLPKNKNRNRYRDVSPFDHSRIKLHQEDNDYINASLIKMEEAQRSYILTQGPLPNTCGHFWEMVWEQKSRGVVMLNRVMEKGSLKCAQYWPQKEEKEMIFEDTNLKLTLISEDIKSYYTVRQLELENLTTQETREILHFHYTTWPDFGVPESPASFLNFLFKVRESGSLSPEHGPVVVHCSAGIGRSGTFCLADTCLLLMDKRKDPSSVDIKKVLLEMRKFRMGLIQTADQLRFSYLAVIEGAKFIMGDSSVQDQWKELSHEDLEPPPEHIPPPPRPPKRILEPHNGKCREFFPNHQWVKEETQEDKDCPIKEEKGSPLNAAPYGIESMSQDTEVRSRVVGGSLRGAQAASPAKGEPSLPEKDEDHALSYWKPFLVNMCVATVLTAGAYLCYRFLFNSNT

CD45 = biological target: T6, CD45 (Homo sapiens, UniProt P08575); test: PTP inhibition assay (pNPP); details: pNPP at Km, pH 7.0, 25° C.
T6 sequence (P08575 26-1306): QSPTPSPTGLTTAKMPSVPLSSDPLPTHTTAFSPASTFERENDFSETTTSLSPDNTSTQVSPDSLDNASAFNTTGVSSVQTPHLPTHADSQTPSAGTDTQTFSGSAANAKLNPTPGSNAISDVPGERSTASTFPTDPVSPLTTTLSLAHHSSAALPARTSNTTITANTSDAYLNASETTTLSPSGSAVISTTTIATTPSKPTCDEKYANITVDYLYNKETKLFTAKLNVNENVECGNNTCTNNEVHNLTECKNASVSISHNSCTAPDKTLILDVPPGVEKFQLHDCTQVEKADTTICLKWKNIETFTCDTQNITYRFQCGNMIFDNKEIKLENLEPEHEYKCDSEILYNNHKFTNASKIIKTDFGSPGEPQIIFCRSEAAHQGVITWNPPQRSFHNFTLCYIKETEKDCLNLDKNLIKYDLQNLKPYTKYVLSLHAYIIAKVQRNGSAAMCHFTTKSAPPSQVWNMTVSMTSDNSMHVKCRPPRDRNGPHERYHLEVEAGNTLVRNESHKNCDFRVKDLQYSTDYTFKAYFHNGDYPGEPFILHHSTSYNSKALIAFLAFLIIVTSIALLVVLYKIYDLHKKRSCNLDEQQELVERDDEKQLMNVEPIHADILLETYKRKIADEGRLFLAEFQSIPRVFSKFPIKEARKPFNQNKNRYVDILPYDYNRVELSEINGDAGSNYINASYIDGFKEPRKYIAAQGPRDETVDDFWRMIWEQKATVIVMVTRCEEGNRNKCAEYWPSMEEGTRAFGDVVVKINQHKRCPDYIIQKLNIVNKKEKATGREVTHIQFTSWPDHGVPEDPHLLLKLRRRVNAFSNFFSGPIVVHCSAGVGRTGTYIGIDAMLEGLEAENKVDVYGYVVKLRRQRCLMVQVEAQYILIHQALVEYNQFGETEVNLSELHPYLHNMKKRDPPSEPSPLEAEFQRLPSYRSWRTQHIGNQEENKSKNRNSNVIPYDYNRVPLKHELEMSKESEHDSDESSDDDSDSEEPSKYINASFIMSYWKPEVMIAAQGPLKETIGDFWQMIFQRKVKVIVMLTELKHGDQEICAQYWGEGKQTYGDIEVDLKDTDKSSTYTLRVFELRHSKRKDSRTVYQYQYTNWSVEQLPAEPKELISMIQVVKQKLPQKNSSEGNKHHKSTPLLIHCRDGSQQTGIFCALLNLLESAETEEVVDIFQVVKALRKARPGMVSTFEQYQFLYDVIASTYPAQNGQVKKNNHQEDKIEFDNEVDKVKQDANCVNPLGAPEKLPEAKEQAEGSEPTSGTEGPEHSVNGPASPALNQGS

Structure (SMILES)	IC50 (SHP2) [µM]	IC50 (LYP) [µM]	IC50 (LMWPTP) [µM]	IC50 (Laforin) [µM]	IC50 (PTP1B) [µM]	IC50 (CD45) [µM]	Inhibition of Laforin at 200 μM (Laforin; 200 μM)	Inhibition of Laforin at 100 μM (Laforin; 100 μM)
O=C(Nc1nc2c(Cl)cccc2s1)C(c1ccccc1)S(=O)(=O)O (centres unmarked) [Compound L319N15-01]	41	22	4.6	2.2	70	–	–	–
O=C(Nc1nc2ccccc2s1)C(c1ccc([N+](=O)[O-])cc1)S(=O)(=O)O (centres unmarked) [Compound L319N15-16]	135	180	> 200	66	> 200	> 200	–	–
O=C(Nc1nc2ccccc2s1)C(c1ccccc1Cl)S(=O)(=O)O (centres unmarked) [Compound L319N15-18]	> 100	> 100	> 100	32	> 100	> 100	–	–
O=C(Nc1nc2ccccc2s1)C(c1ccc(Br)cc1)S(=O)(=O)O (centres unmarked) [Compound L319N15-14]	> 200	> 200	> 200	19	> 200	> 200	–	–
O=C(Nc1nccs1)C(c1ccccc1)S(=O)(=O)O (centres unmarked) [Compound L319N13]	> 100	> 100	–	8	> 100	> 100	–	–
O=C(Nc1nc2ccc(OC(F)(F)F)cc2s1)C(c1ccccc1)S(=O)(=O)O (centres unmarked) [Compound L319N15-09]	47	20	5.3	3.2	160	80	–	–
O=C(Nc1nc(-c2ccccc2)cs1)C(c1ccccc1)S(=O)(=O)O (centres unmarked) [Compound L319N14]	31	15	20	6	160	70	–	–
O=C(O)c1ccc2nc(NC(=O)C(c3ccccc3)S(=O)(=O)O)sc2c1 (centres unmarked) [Compound L319N15-13]	83	31	70	> 200	> 200	90	did not inhibit	–
Cc1ccc2nc(NC(=O)C(c3ccccc3)S(=O)(=O)O)sc2c1 (centres unmarked) [Compound L319N15-08]	> 200	> 200	8.2	2	> 200	> 200	–	–
Nc1ccc2nc(NC(=O)C(c3ccccc3)S(=O)(=O)O)sc2c1 (centres unmarked) [Compound L319N15-12]	190	166	14	3.3	> 200	160	–	–
CCOC(=O)c1ccc2nc(NC(=O)C(c3ccccc3)S(=O)(=O)O)sc2c1 (centres unmarked) [Compound L319N15-11]	55	28	3.03	1.7	–	70	–	–
O=C(Nc1nc2ccc(F)cc2s1)C(c1ccccc1)S(=O)(=O)O (centres unmarked) [Compound L319N15-05]	173	150	4.2	1.7	> 200	> 200	–	–
COc1cccc2sc(NC(=O)C(c3ccccc3)S(=O)(=O)O)nc12 (centres unmarked) [Compound L319N15-03]	> 200	> 200	7.6	1.2	> 200	> 200	–	–
Cc1cccc2sc(NC(=O)C(c3ccccc3)S(=O)(=O)O)nc12 (centres unmarked) [Compound L319N15-02]	129	110	9.6	4	> 200	> 200	–	–
Cc1cc2nc(NC(=O)C(c3ccccc3)S(=O)(=O)O)sc2cc1C (centres unmarked) [Compound L319N15-04]	112	90	4.8	1.1	> 200	> 200	–	–
COc1ccc2nc(NC(=O)C(c3ccccc3)S(=O)(=O)O)sc2c1 (centres unmarked) [Compound L319N15-10]	> 200	> 200	5.8	2.1	> 200	> 200	–	–
O=C(Nc1nc2ccc(O[N+](=O)[O-])cc2s1)C(c1ccccc1)S(=O)(=O)O (centres unmarked) [Compound L319N15-07]	> 200	> 100	2.1	> 200	> 200	> 200	–	no detectable inhibition
O=C(Nc1nc2ccc(Cl)cc2s1)C(c1ccccc1)S(=O)(=O)O (centres unmarked) [Compound L319N15-06]	30	23	5.6	2.3	80	130	–	–
